Experimental data: US20100029654A1, “CARDIOVASCULAR COMPOSITIONS AND USE OF THE SAME FOR THE TREATMENT OF ALZHEIMER'S DISEASE” (MOUNT SINAI SCHOOL OF MEDICINE, priority 2006, published 2010)
Read-outs that look alike come from different tables or passages of the source.

How the values were obtained:
[1] = valsartan concentration in blood (serum) by MRM mass spectrometry; format: in vivo, mouse; conditions: chronically valsartan-treated mice (40 mg/kg)
Excerpt: A series high throughput studies were initiated to assess and quantify antihypertensive drug levels and related metabolites in Tg 2576 and WT controls following in vivo treatments. […] Presently, using QSTAR (QqTOF) mass spectrometry, which delivers high sensitivity and resolution as well as unparalleled mass accuracy for determination of molecular weights of drugs and related metabolites at femtomole levels, the inventor is proceeding with studies aimed at detecting and eventually quantitating antihypertensive drugs and related metabolites in the brain or CSF. Thus, these technologies will accurate determination of the penetration of the blood brain barrier of candidate Aβ lowering antihypertensives in response to chronic treatments in vivo.

Aβ1-42 = Aβ1-42 content in conditioned medium of primary cortico-hippocampal neuron cultures from Tg2576 mice (ELISA; primary and secondary dose-response screening); format: cell-based, mouse
β-secretase = β-secretase (Mus musculus, UniProt P56818); set-up: dose or concentration left out as unconfirmed; conditions: primary Tg2576 neuron cultures, 16 hours
β-secretase, sequence (P56818 46-501): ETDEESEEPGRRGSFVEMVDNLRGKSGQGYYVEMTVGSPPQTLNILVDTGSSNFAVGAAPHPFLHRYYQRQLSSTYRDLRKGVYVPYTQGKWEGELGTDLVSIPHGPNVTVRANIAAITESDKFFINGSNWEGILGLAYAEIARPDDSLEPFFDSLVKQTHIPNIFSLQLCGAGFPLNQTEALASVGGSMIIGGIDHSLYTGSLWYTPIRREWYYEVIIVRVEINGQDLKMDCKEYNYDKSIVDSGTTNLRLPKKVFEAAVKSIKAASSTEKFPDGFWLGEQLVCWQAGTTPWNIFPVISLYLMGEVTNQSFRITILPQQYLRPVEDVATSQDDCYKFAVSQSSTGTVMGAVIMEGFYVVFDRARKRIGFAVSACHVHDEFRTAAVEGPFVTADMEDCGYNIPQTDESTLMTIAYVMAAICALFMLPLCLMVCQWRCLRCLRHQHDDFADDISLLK

Substance: N-(1-oxopentyl)-N-[[2-(1H-tetrazol-5-yl) [1,1-biphenyl]-4-yl]methyl]-L-valine [Valsartan]
- steady state levels in the blood (serum) [1]: successfully detected steady state levels
- EC50 (Aβ1-42; Table IV, dose-response 0.01-100 μM, read-out: EC50 (M): Ab-lowering activity Aβ1-42): 1.79e-05 M
- EC50 (Aβ1-42; conditioned medium of primary cortico-hippocampal neuron cultures from Tg2576 embryos, 24 hours after treatment, relative to vehicle (1% DMSO) control, read-out: EC50 (molar) Aβ1-42): 1.79e-05 M
- EC50 (Aβ1-42; secondary dose-response screening 0.01-100 μM, 24 hours, read-out: EC50 (molar) Aβ1-42): 1.79e-05 M
- β-secretase activity (β-secretase): selectively inhibition of β-secretase activity
